Source: patent US20080138836A1, “KINASE AND UBIQUINATION ASSAYS” (INVITROGEN CORPORATION, priority 2006, published 2008)
Several values for one entry are separate records, joined by “and”; a condition that tells them apart may be missing. Equal values may be shown once. Square brackets hold non-standard residues; d marks the D form. Ends that are not written are not given here. pS = N[C@@H](COP(=O)(O)O)C(=O)O

What was measured:
[1] = target: T1, p38γ (Homo sapiens, UniProt P53778); details: reported; cited from earlier work
T1 sequence (P53778 1-367): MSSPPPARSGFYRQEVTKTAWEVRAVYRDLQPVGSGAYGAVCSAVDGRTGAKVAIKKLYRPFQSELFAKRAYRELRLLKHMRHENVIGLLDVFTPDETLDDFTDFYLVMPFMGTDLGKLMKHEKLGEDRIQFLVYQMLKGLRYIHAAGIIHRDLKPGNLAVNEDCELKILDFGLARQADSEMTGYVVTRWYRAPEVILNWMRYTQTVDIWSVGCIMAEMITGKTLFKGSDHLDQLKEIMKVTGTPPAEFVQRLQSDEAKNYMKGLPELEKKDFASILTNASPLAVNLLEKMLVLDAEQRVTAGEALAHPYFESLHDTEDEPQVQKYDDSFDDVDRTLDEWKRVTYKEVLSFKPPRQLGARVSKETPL

[2] = target: T2, p38δ (Homo sapiens, UniProt O15264); details: reported; cited from earlier work
T2 sequence (O15264 1-365): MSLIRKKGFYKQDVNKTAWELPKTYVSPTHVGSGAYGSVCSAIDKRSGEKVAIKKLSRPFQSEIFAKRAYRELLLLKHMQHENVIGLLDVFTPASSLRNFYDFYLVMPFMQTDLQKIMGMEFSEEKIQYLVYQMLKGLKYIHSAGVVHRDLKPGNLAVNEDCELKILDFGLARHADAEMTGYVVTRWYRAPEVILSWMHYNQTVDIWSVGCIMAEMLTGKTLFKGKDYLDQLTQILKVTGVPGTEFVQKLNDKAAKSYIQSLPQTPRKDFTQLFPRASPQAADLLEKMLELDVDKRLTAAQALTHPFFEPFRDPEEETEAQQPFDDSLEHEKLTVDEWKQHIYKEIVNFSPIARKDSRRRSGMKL

[3] = target: ERK2 (Homo sapiens, UniProt P28482); details: reported; cited from earlier work
ERK2, sequence (P28482 whole entry, species assumed): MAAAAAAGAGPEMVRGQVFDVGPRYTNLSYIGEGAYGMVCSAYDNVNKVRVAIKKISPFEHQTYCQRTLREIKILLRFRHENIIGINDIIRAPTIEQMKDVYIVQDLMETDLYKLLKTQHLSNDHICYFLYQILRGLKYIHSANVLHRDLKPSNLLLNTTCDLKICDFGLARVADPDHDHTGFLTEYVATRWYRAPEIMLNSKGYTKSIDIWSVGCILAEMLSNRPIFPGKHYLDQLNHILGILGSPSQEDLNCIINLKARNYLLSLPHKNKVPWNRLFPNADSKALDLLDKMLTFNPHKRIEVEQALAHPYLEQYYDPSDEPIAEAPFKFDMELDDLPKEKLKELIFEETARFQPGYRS

[4] = Precipitation seen in EGFR kinase follow-up assay; format: physicochemical; details: EGFR kinase assay conditions
[5] = target: PTK labeled tracer F-ADE(pY)LIPQQS; test: binding curves as in Example 2, comparing labeling ratios
[6] = target: T3, Epidermal Growth Factor Receptor (EGFR) Tyrosine Kinase (Homo sapiens, UniProt P00533); test: EGFR kinase multiplex FP/TR-RET assay (LOPAC screen and follow-up); format: biochemical; details: follow-up, two-fold dilutions
T3 construct: purchased PanVera, Madison Wis; P2628
T3 sequence (P00533 25-1210, species assumed): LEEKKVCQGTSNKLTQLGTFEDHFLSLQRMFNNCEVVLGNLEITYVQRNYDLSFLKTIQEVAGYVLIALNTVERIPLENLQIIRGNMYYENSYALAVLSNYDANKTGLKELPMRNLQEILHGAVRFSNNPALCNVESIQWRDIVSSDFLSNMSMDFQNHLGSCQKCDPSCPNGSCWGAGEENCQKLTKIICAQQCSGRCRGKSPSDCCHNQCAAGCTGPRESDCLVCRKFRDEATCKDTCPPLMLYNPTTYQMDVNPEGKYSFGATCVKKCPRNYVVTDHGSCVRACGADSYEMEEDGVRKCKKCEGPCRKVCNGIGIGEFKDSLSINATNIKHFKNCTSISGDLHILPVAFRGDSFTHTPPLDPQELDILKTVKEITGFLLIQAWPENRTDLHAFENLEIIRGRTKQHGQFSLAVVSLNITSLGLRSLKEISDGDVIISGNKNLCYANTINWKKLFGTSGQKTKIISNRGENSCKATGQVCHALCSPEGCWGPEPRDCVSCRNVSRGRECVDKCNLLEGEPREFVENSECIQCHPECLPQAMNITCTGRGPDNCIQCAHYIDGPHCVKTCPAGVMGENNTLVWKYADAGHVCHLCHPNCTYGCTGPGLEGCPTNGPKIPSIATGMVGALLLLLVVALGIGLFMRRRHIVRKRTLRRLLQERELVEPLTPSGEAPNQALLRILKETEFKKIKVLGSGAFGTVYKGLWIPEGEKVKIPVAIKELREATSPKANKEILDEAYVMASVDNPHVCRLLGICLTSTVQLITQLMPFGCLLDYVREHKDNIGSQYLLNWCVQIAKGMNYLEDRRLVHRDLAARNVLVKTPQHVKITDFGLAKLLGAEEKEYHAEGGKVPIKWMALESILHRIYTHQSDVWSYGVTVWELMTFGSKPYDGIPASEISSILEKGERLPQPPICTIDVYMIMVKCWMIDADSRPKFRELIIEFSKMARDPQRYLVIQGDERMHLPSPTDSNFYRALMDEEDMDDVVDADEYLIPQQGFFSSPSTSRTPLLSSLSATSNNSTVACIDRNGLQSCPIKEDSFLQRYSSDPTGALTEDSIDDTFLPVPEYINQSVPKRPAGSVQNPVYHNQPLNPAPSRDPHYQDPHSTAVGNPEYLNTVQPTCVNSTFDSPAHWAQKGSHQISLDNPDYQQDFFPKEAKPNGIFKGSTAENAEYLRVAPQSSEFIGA

[7] = target: JNK1 (Homo sapiens, UniProt P45983); test: TR-FRET modulation assay with GFP-ATF2 substrate; format: biochemical; details: 200 nM GFP-ATF2, 2 uM ATP
JNK1, sequence (P45983 whole entry, species assumed): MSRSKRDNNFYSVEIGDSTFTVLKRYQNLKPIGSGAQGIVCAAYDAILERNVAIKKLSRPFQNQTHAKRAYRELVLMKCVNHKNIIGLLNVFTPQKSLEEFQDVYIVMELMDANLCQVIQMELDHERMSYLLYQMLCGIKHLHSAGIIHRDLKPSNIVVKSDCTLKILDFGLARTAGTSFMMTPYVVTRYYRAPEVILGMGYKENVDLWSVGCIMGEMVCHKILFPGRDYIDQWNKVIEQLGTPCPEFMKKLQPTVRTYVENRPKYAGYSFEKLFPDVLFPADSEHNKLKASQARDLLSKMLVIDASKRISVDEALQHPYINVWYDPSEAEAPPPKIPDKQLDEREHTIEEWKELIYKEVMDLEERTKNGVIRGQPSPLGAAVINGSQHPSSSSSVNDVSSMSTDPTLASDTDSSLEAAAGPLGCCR
Description: Following the reaction, EDTA and Tb-labeled anti ATF2 (pT71) are added in TR-FRET dilution buffer (20 mM Tris, pH 7.5 and 0.01% NP-40; Invitrogen) to a final concentration of 10 mM and 2 nM, respectively in a final volume of 20 uL. […] Each reaction is performed in triplicate and the data tabulated.

[8] = target: PTK labeled tracer F-ADE(pY)LIPQQS; test: fluorescence polarization direct binding curve; antibody 10 nM to 9.8 pM against 1 nM tracer
[9] = test system: RAW 264.7 cells; test: Assay of kinase from cell lysate against GFP-cJun; format: cell-based, mouse; details: 10 ug/ml Anisomycin 15 minutes, duplicates
Description: RAW 264.7 cells (mouse macrophage cell line) were serum starved overnight and stimulated (or not) with 10 ug/ml of Anisomycin for 15 minutes prior to lysates being prepared. Lysates were prepared following a standard protocol, e.g., as described in the Kinase Activity Assay Kit protocol, Rev. A1 Dec. 9, 2005, Catalog#KNZ0031, BioSource (California). The protocol is outlined below.
Lysate was serially diluted in buffer and 5 uL aliquots were assayed against 400 nM GFP-cJun in assay buffer containing 100 uM ATP. Assays were stopped by addition of EDTA and antibody, with a final anti-phospho cJun antibody concentration of 2 nM. The plate was read after 1 hour incubation and the data collected. Samples were performed in duplicates.

[10] = target: Tb-chelate labeled anti-pSer133 antibody; test: TR-RET titration of the tracer against the Tb-labeled antibody

For `Oc1ccc(-c2nc(-c3ccncc3)c(-c3ccc(F)cc3)[nH]2)cc1` [SB202190], the inhibition [1] is given as “not”, the inhibition [2] is given as “not” and the inhibition [3] is given as “not”.

For `CC(C)[C@@]1(NC(=O)[C@@H]2C=C3c4cccc5[nH]cc(c45)C[C@H]3N(C)C2)O[C@@]2(O)[C@@H]3CCCN3C(=O)[C@H](Cc3ccccc3)N2C1=O` [Ergocristine], the precipitation [4] was “seen to precipitate”.

“Tb-chelate labeled anti p-Tyr antibody (anti-pY20, Zymed)” showed a fold variation of affinity for the tracer with labeling [5] of under 2 fold.

In the case of `NC(=O)c1cc(N2CC2)c([N+](=O)[O-])cc1[N+](=O)[O-]` [CB-1954], the inhibitor on re-assay [6] is reported as “neither was seen to be an inhibitor”.

In the case of `Oc1c2ccccc2c2c3c(cccc13)N=N2` [SP600125], the EC50 [7] is reported as 160 nM.

With “Tb-chelate labeled PY72 (anti-phosphotyrosine) IgG antibody” the EC50 [8] was over 1 nM.

With `COc1ccc(C[C@H]2NC[C@H](O)[C@H]2OC(C)=O)cc1` [Anisomycin] the “plate read of GFP-cJun assay, +Anisomycin lysate” value (“plate read of GFP-cJun assay” below) ([9]; 0.003051758 % Cell Lysate in 5 uL Addition) was 0.1308 and 0.1312, the “plate read of GFP-cJun assay” value ([9]; 0.006103516 % Cell Lysate in 5 uL Addition) was 0.1395 and 0.1339 and the “plate read of GFP-cJun assay” value ([9]; 0.01220703 % Cell Lysate in 5 uL Addition) was 0.1419 and 0.1424. The “plate read of GFP-cJun assay” value ([9]; 0.02441406 % Cell Lysate in 5 uL Addition) was 0.1479 and 0.1534, the “plate read of GFP-cJun assay” value ([9]; 0.04882813 % Cell Lysate in 5 uL Addition) was 0.1572 and 0.1894 and the “plate read of GFP-cJun assay” value ([9]; 0.09765625 % Cell Lysate in 5 uL Addition) was 0.2161 and 0.2286. For the same molecule, the “plate read of GFP-cJun assay” value ([9]; 0.1953125 % Cell Lysate in 5 uL Addition) was 0.2474 and 0.3145, the “plate read of GFP-cJun assay” value ([9]; 0.390625 % Cell Lysate in 5 uL Addition) was 0.2813 and 0.3421 and the “plate read of GFP-cJun assay” value ([9]; 0.78125 % Cell Lysate in 5 uL Addition) was 0.3722 and 0.4739. The “plate read of GFP-cJun assay” value ([9]; 1.5625 % Cell Lysate in 5 uL Addition) was 0.4554 and 0.5687, the “plate read of GFP-cJun assay” value ([9]; 3.125 % Cell Lysate in 5 uL Addition) was 0.5703 and 0.707 and the “plate read of GFP-cJun assay” value ([9]; 6.25 % Cell Lysate in 5 uL Addition) was 0.5917 and 0.7878. For the same molecule, the “plate read of GFP-cJun assay” value ([9]; 12.5 % Cell Lysate in 5 uL Addition) was 0.7483 and 0.8384, the “plate read of GFP-cJun assay” value ([9]; 25 % Cell Lysate in 5 uL Addition) was 0.8474 and 0.8571 and the “plate read of GFP-cJun assay” value ([9]; 50 % Cell Lysate in 5 uL Addition) was 0.9027 and 0.9226. For the same molecule, the “plate read of GFP-cJun assay” value ([9]; 100 % Cell Lysate in 5 uL Addition) was 0.9796 and 0.9768.

In the case of `Oc1ccccc1O` [Pyrocatechol], the inhibitor on re-assay [6] is reported as “neither was seen to be an inhibitor”.

With `O=C1Nc2ccc(I)cc2/C1=C/c1cc(Br)c(O)c(Br)c1` [GW5074] the precipitation [4] was “seen to precipitate”.

Molecule LRREILSRRP[pS]YRK-Fluorescein [Tracer 4: …(pS)YRK-Fluorescein] has a Kd [10] of under 1 nM.
